Measured values reported in US12084472B2 (Ardelyx, Inc., priority 2015, dated 2024).

molecular target: T1, human TGR5 (Homo sapiens, UniProt Q8TDU6); test: Cell-based TGR5 assay (cAMP generation, HTRF); conditions: HEK293 cells stably transfected with human TGR5; cAMP by HTRF; 30 minutes at 37° C.; read-out: pEC50 Human TGR5 (converted)
T1 construct: expressed in transfected cells; host or cells: HEK293
T1 sequence (Q8TDU6 1-330): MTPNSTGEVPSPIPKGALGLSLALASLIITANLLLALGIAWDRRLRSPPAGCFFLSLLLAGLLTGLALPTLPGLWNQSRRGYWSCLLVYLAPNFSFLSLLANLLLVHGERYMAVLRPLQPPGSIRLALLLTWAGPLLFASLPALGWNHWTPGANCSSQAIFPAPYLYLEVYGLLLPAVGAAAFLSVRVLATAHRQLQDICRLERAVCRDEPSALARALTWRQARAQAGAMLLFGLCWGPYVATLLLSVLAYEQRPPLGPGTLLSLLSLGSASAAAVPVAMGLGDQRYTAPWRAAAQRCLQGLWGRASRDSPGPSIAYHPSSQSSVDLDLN
Outline: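 Read-out was HTRF detection of cAMP, converted to concentration via a standard curve and fitted (3-parameter logistic) for pEC50 and maximal response. Agonist stimulation used HEK293 cells stably transfected with human TGR5, incubated 30 min at 37° C in IBMX-containing buffer at 0.05 nM to 10 μM compound.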

Structure (SMILES)	EC50 [nM]
O=C(CCCCc1cc(Cl)c(COC2(c3cnccc3-c3ccccc3OC3CC3)CC2)cc1Cl)N(CCO)C[C@H](O)[C@@H](O)[C@H](O)[C@H](O)CO [Compound I-105, 5-[2,5-dichloro-4-({1-[4-(2-cyclopropoxyphenyl)pyridin-3-yl]cyclopropoxy}methyl)phenyl]-N-(2-hydroxyethyl)-N-[(2S,3R,4R,5R)-2,3,4,5,6-pentahydroxyhexyl]pentanamide]	< 100
Cc1cc(COC2(c3cnccc3-c3ccccc3OC3CC3)CC2)c(Cl)cc1CCCCNC(=O)N(CCO)C[C@H](O)[C@@H](O)[C@H](O)[C@H](O)CO [Compound I-107, 1-{4-[5-chloro-4-({1-[4-(2-cyclopropoxyphenyl)pyridin-3-yl]cyclopropoxy}methyl)-2-methylphenyl]butyl}-3-(2-hydroxyethyl)-3-[(2S,3R,4R,5R)-2,3,4,5,6-pentahydroxyhexyl]urea]	< 100
CCN(C[C@H](O)[C@@H](O)[C@H](O)[C@H](O)CO)C(=O)CCCCc1cc(Cl)c(COC2(c3cnccc3-c3ccccc3OC3CC3)CC2)cc1Cl [Compound I-108, 5-[2,5-dichloro-4-({1-[4-(2-cyclopropoxyphenyl)pyridin-3-yl]cyclopropoxy}methyl)phenyl]-N-ethyl-N-[(2S,3R,4R,5R)-2,3,4,5,6-pentahydroxyhexyl]pentanamide]	< 100
Cc1cc(COC2(c3cnccc3-c3ccccc3OC3CC3)CC2)c(Cl)cc1CCCCNC(=O)NC[C@@H]1O[C@H](CO)[C@@H](O)[C@H](O)[C@H]1O [Compound I-109, 3-{4-[5-chloro-4-({1-[4-(2-cyclopropoxyphenyl)pyridin-3-yl]cyclopropoxy}methyl)-2-methylphenyl]butyl}-1-{[(2S,3R,4R,5S,6R)-3,4,5-trihydroxy-6-(hydroxymethyl)oxan-2-yl]methyl}urea]	< 100
Cc1cc(COC2(c3cnccc3-c3ccccc3OC3CC3)CC2)c(Cl)cc1CCCCNC(=O)NC[C@@H]1O[C@H](C(=O)O)[C@@H](O)[C@H](O)[C@H]1O [Compound I-110, (2S,3S,4R,5R,6S)-6-{[({4-[5-chloro-4-({1-[4-(2-cyclopropoxyphenyl)pyridin-3-yl]cyclopropoxy}methyl)-2-methylphenyl]butyl}carbamoyl)amino]methyl}-3,4,5-trihydroxyoxane-2-carboxylic acid]	< 100
Cc1cc(COC2(c3cnccc3-c3ccccc3OC3CC3)CC2)c(Cl)cc1CCCCNC(=O)N1CCN(C[C@H](O)[C@@H](O)[C@@H](O)[C@H](O)CO)CC1 [Compound I-114, N-{4-[5-chloro-4-({1-[4-(2-cyclopropoxyphenyl)pyridin-3-yl]cyclopropoxy}methyl)-2-methylphenyl]butyl}-4-[(2S,3R,4S,5R)-2,3,4,5,6-pentahydroxyhexyl]piperazine-1-carboxamide]	< 100
Cc1cc(COC2(c3cnccc3-c3ccccc3OC3CC3)CC2)c(Cl)cc1CCCCN(C)C(=O)NC[C@H](O)[C@@H](O)[C@H](O)[C@H](O)CO [Compound I-115, 1-{4-[5-chloro-4-({1-[4-(2-cyclopropoxyphenyl)pyridin-3-yl]cyclopropoxy}methyl)-2-methylphenyl]butyl}-1-methyl-3-[(2S,3R,4R,5R)-2,3,4,5,6-pentahydroxyhexyl]urea]	< 100
COCCN(CCCCc1cc(Cl)c(COC2(c3cnccc3-c3ccccc3OC3CC3)CC2)cc1C)C(=O)NC[C@H](O)[C@@H](O)[C@H](O)[C@H](O)CO [Compound I-116, 1-{4-[5-chloro-4-({1-[4-(2-cyclopropoxyphenyl)pyridin-3-yl]cyclopropoxy}methyl)-2-methylphenyl]butyl}-1-(2-methoxyethyl)-3-[(2S,3R,4R,5R)-2,3,4,5,6-pentahydroxyhexyl]urea]	< 100
Cc1cc(COC2(c3cnccc3-c3ccccc3OC3CC3)CC2)c(Cl)cc1CCCCN(CCOCCO)C(=O)NC[C@H](O)[C@@H](O)[C@H](O)[C@H](O)CO [Compound I-117, 1-{4-[5-chloro-4-({1-[4-(2-cyclopropoxyphenyl)pyridin-3-yl]cyclopropoxy}methyl)-2-methylphenyl]butyl}-1-[2-(2-hydroxyethoxy)ethyl]-3-[(2S,3R,4R,5R)-2,3,4,5,6-pentahydroxyhexyl]urea]	< 100
Cc1cc(COC2(c3cnccc3-c3ccccc3OC3CC3)CC2)c(Cl)cc1CCCCN(CCCCCO)C(=O)NC[C@H](O)[C@@H](O)[C@H](O)[C@H](O)CO [Compound I-118, 1-{4-[5-chloro-4-({1-[4-(2-cyclopropoxyphenyl)pyridin-3-yl]cyclopropoxy}methyl)-2-methylphenyl]butyl}-1-(5-hydroxypentyl)-3-[(2S,3R,4R,5R)-2,3,4,5,6-pentahydroxyhexyl]urea]	< 100
O=C(CCCCc1cc(Cl)c(COC2(c3cnccc3-c3ccccc3OC3CC3)CC2)cc1Cl)N(Cc1ccccc1)C[C@@H](O)[C@H](O)[C@H](O)[C@H](O)CO [Compound I-120, N-benzyl-5-(2,5-dichloro-4-((1-(4-(2-cyclopropoxyphenyl)pyridin-3-yl)cyclopropoxy)methyl)phenyl)-N-((2R,3S,4R,5R)-2,3,4,5,6-pentahydroxyhexyl)pentanamide]	126 to 1000

Second part, the compound after the results:

EC50 [nM]	Structure (SMILES)
< 100	Cc1cc(COC2(c3cnccc3-c3ccccc3OC3CC3)CC2)c(Cl)cc1CCCCNC(=O)N[C@@H](C(=O)O)[C@@H](O)[C@H](O)[C@H](O)CO [Compound I-106, (2R,3R,4S,5R)-2-[({4-[5-chloro-4-({1-[4-(2-cyclopropoxyphenyl)pyridin-3-yl]cyclopropoxy}methyl)-2-methylphenyl]butyl}carbamoyl)amino]-3,4,5,6-tetrahydroxyhexanoic acid]
< 100	Cc1cc(COC2(c3cnccc3-c3ccccc3OC3CC3)CC2)c(Cl)cc1CCCCNC(=O)NCC(=O)NCC(=O)NCC(=O)O [Compound I-111, 2-(2-{2-[({4-[5-chloro-4-({1-[4-(2-cyclopropoxyphenyl)pyridin-3-yl]cyclopropoxy}methyl)-2-methylphenyl]butyl}carbamoyl)amino]acetamido}acetamido)acetic acid]
< 100	Cc1cc(COC2(c3cnccc3-c3ccccc3OC3CC3)CC2)c(Cl)cc1CCCCNC(=O)N[C@@H](C)C(=O)N[C@@H](C)C(=O)N[C@@H](C)C(=O)O [Compound I-112, (2S)-2-[(2S)-2-[(2S)-2-[({4-[5-chloro-4-({1-[4-(2-cyclopropoxyphenyl)pyridin-3-yl]cyclopropoxy}methyl)-2-methylphenyl]butyl}carbamoyl)amino]propanamido]propanamido]propanoic acid]
< 100	Cc1cc(COC2(c3cnccc3-c3ccccc3OC3CC3)CC2)c(Cl)cc1CCCCNC(=O)N[C@@H](CCCNC(=N)N)C(=O)O [Compound I-113, (2S)-5-carbamimidamido-2-[({4-[5-chloro-4-({1-[4-(2-cyclopropoxyphenyl)pyridin-3-yl]cyclopropoxy}methyl)-2-methylphenyl]butyl}carbamoyl)amino]pentanoic acid]
126 to 1000	Cc1cc(COC2(c3cnccc3-c3ccccc3OC3CC3)CC2)c(Cl)cc1CCCCNC(=O)N[C@H](CCCCN)C(=O)O [Compound I-119, (2R)-6-amino-2-[({4-[5-chloro-4-({1-[4-(2-cyclopropoxyphenyl)pyridin-3-yl]cyclopropoxy}methyl)-2-methylphenyl]butyl}carbamoyl)amino]hexanoic acid]
